Data as given in a melting point compilation (Tetko et al.; mined from patent text by program, amines drawn as free bases though some values may be those of a salt).

Compound	melting point
CCCCCCCCCCCCCCOc1cc(O)cc(C(=O)OC)c1	92 to 94 °C
COC(=O)CCCCCOc1ccc(NC(=O)OCCO)cc1	69.5 to 71.5 °C
COC(=O)Cc1ccc(C(=O)c2ccccc2)n1C	96 to 98 °C
CCCCOc1c(NC(CC)CC)c(=O)c1=O	65 to 66 °C
C1=C(c2c[nH]c3c(C4CC4)cccc23)CCNC1	186 to 189 °C
CCCCCCC(C(C)O)n1cnc(C(N)=O)c1N (centres undefined)	159 to 160 °C
Cc1nc(N2CCN(Cc3ccccc3)S2(=O)=O)sc1C(=O)NCc1ccccc1	135 to 137 °C
Nc1nc(N)nc(-c2ccc(NS(=O)(=O)c3ccc4ccccc4c3)cc2)n1	230 to 233 °C
CC(C)COC(=O)CC1CC(c2ccc(C#N)cc2)=NO1 (single isomer, unassigned; (-))	98 to 100 °C
c1ccc(N2c3ccccc3[C@@H]3CN(CC4CCC4)CC[C@H]32)cc1	76.5 to 77 °C
NC(=O)c1cccc(NC(=O)C(CS)Cc2ccccc2)c1 (centres undefined)	159 to 164 °C
CCOC(=O)CN(C)C(=O)CC1=C(n2nc(-c3c(-c4ccccc4)nn4ccccc34)ccc2=O)CCCC1	56 to 60 °C
COc1cc(CC(=O)Nc2ccc(C3(CC(=O)O)CCCC3)cc2)ccc1NC(=O)Nc1ccccc1C	223 to 226 °C
CC(=O)N1C(C)(C)CC(OC(=O)CC(c2cc(C(C)(C)C)c(O)cc2C)c2cc(C(C)(C)C)c(O)cc2C)CC1(C)C	270 °C
Cc1cc(-n2ccnc2)c2cccc(OCc3c(Cl)ccc(S(=O)(=O)N4CCCC4C(=O)NCC4CCN(CC(=O)CC(=O)O)CC4)c3Cl)c2n1 (centres undefined)	125 °C
C[C@H](NC(=O)C[C@H](O)CC(=O)/C=C/c1c(C2CC2)nc2ccccc2c1-c1ccc(F)cc1)c1ccccc1	150 to 151 °C
O=C(N[C@H](Cc1ccc(C(F)(F)F)cc1)[C@@H](O)c1cccc2ccccc12)c1ccc(F)c2ccccc12 (racemic)	195 to 196 °C
CCSc1nccnc1C(=O)CC	45 to 48 °C
CCCc1c(OCCCOc2ccc(C(=O)C(=O)O)cc2)ccc(C(=O)O)c1O	182 to 185 °C
CCc1cccc2c(NC(=O)C[C@H]3O[C@H](c4cccc(OC)c4OC)c4cc(Cl)ccc4N(CC(C)(C)CO)C3=O)c(C(=O)O)oc12	188 to 189 °C
CC(=O)N(CC(=O)N1CC1C#N)c1ccccc1 (centres undefined)	69 to 75 °C
O=C(NCCNS(=O)(=O)c1ccc(Oc2ccccc2)cc1)P(=O)(O)O	166 to 169 °C

Compound	melting point
Cc1nc(OCc2c(C(C)C)nnn2-c2c(Cl)cccc2Cl)ccc1N(C)S(=O)(=O)c1ccc(C(=O)O)cc1	128 to 129 °C
CCS(=O)(=O)Nc1ccc(C(=O)CN2CCN(c3ccncc3)CC2)cc1	204 to 208 °C
COC(=O)CCC1OC(=O)N=C1c1ccccc1 (centres undefined)	104 to 105 °C
CCCCCCCCCCCCCCCCCNC(=O)Oc1cccc([N+](=O)[O-])c1	66 to 73 °C
CNC(=S)NCCSCc1nc2ccccc2[nH]1	157 to 159 °C
COC(=O)Cc1ccc(OCCNC(=O)C2Cc3ccccc3N2S(=O)(=O)c2ccc(-c3cc(C)ccc3OC)cc2)cc1 (centres undefined)	57 to 60 °C
CCCCN(CCC12CC3CC(CC(C3)C1)C2)C(=O)NCCCc1ccncc1	110 to 118 °C
CC(=O)OC1CSC(Oc2cnc(Cl)c(F)c2)C(OC(C)=O)C1OC(C)=O (centres undefined)	158 to 162 °C
CCOC(=O)C(C)(C)NC(=O)c1nnc2ccc(NCCCN3CCC(OC(c4ccccc4)c4ccccc4)CC3)nn12	165 to 167 °C
Nc1c(N=O)c(=O)n(CC2CCCC2)c(=O)n1CC1CCCC1	254 to 255 °C
O=C(O)CCCc1ccc(CCN(CC=Cc2ccc(Cl)cc2)S(=O)(=O)c2ccc(Cl)cc2)cc1	112 to 113 °C
CC1(COC2CC3C4CCC5=CC(=O)CCC5(C)C4(F)C(O)CC3(C)C2(O)C(=O)CO)CO1 (centres undefined)	223 to 227 °C
CCS(=O)c1c(C#N)nn(-c2c(Cl)cc(C(F)(F)F)cc2Cl)c1N (centres undefined)	173 to 174 °C
CC(C)(C)c1cc(-n2nc3ccc(S(=O)(=O)c4ccccc4)cc3n2)c(O)c(C(C)(C)C)c1	170 to 172 °C
O=CNc1nc(C(=NOCC(=O)OC(c2ccccc2)c2ccccc2)C(=O)O)cs1	143 to 151 °C
CNC1(C(=O)O)CCN(OC)CC1	> 250 °C
O=C(O)CCC(=O)c1ccc(C2CCCCC2)cc1	140 to 141 °C
CCc1cc(-c2nnc3c4ccccc4c(OCc4ncn(C)n4)nn23)no1	236 to 238 °C
CCCCCCCCCCCC1Nc2ccccc2-c2c([N+](=O)[O-])cnn21 (centres undefined)	92 to 93 °C
OCC1OC(n2cnc3c(NN4CCOCC4)nc(Cl)nc32)C(O)C1O (centres undefined)	160 to 161 °C
CCCCCCCC(CC(=O)O)CC(=O)O	43 to 44 °C
C=CCN(CC=C)C(=O)n1cnc(S(=O)(=O)CCC)n1	41 to 42 °C

The next lines start with the values.

melting point	Compound
158 to 160 °C	COc1nc(C)c(C)nc1NC(=O)N1CCN(c2cccc(Br)c2)CC1
255 to 257 °C	Cc1nc2c(N)nc3ccccc3c2n1OC(C)(C)C
> 310 °C	O=c1[nH]c(Cl)nc2c1ncn2COCCO
277 to 279 °C	N#Cc1nc(-c2cc(Cl)cc(Cl)c2Cl)c(N)nc1N
99 to 100 °C	O=C(O)CCC1Cc2ccccc2C1
85 to 89 °C	Cc1c(C)c(Cl)c(Cl)c(Cl)c1Cl
96 °C	Cn1c2ccccc2c2cc(CO)ccc21
132 to 137 °C	COC(=O)c1ccc(CNC(=O)c2c(N)cc(Cl)cc2Cl)cc1
149 to 150 °C	CCCCCCCC(=O)OC(=C1C(=O)N(C(N)=O)c2cc(Cl)c(F)cc21)c1cccs1
114 to 116 °C	[N-]=[N+]=NCCCc1cc(-c2ccccc2)n(-c2ccc(S(N)(=O)=O)cc2)n1
234 to 236 °C	CSc1cn(C)c2cc(-c3cccc(Cl)c3)sc2c1=O
190 to 191 °C	COCC(=O)Nc1ccc2ncnc(Nc3cccc(Br)c3)c2c1
108 to 109 °C	C/C(Cl)=C\C(=O)Nc1ccc(C)cc1
219 to 220 °C	O=C(O)c1ccc(OCCNC(=O)c2ccc(Cl)cc2)cc1
106 to 108 °C	O=C(c1ccc(CCl)cc1)N1CCCCC1
230 to 232 °C	COc1cccc2c(=O)n3ccsc3nc12
80 to 81 °C	CC(C)n1nc(-c2cccc(Cl)c2)c2ncccc2c1=O
201 to 202 °C	O=c1c2cc(F)c(F)cc2n(-c2ccc(F)cc2)c(=O)n1OCc1ccccc1
132 °C	COc1cc(C)cc(OC)c1N(CCC(C)C)C(=O)CNC(=O)OC(C)(C)C
153 to 155 °C	C#CC(C)Oc1cc(Cc2cnc(N)nc2N)cc(OC)c1OC (centres undefined)
186 to 188 °C	O=C1CC2Cc3ccccc3N2CCN1 (centres undefined)
59 to 60 °C	CCCc1cc(=O)n2cccc(C)c2n1
155 to 157 °C	Cc1ccc(OS(=O)(=O)c2ccc(N3CCN(C)C3=O)cc2)cc1
180 to 182 °C	O=[N+]([O-])c1ccc(Oc2cccc(Oc3ccc([N+](=O)[O-])c(O)c3)c2)cc1O
256 to 257 °C	COc1nc2cnccc2nc1NS(=O)(=O)c1cccc(Cl)c1Cl
161 to 162 °C	O=C(O)Cc1ccc2nc(-c3ccccc3)ccc2c1
185 to 195 °C	CCS(=O)(=O)Nn1c(=O)[nH]c2cc(C(F)(F)F)c(-n3cnnc3)cc2c1=O
209 °C	CC(=O)N[C@@H](Cc1c[nH]c2ccc(O)cc12)C(=O)O

melting point	Compound
210 °C	Cc1cccc(NC(=O)NCC(=O)N(CC(=O)Nc2ccc3c(c2)CCC3)c2ccccc2)c1
128 °C	CCOC(=O)Oc1c(OC)cc(Cl)c2c1CN1CCc3cc(OC)c(OCc4ccccc4)cc3C1C2 (centres undefined)
176 to 177 °C	CCc1nc2c(N)nc3ccccc3c2n1CCCCS(=O)(=O)NCc1ccc(OC)cc1
123 to 124 °C	COc1cc(NCCCCCCN2C(=O)c3ccccc3C2=O)c2ncccc2c1
158 to 160 °C	O=C(O)CCC(=O)c1ccc([N+](=O)[O-])c(O)c1
162 to 164 °C	CON1C=C2N=NC3=C(N2C1)N(c1ccccn1)CC(C1CC1)=C3
234 to 235 °C	CC(C)(C)c1ccc(C(=O)Nc2cn3cc(C(F)(F)F)ccc3n2)cc1
176 to 178 °C	CC(=O)Nc1cc(N)c(F)cc1Cl
126 to 127 °C	Cn1cnc2ccc(-c3nnc(SCc4cccc(C(F)(F)F)c4)o3)cc21
266 to 268 °C	CN1C(=O)C2(COc3cc4c(cc32)OCCO4)c2c(NC(=O)C3CC3)cccc21 (centres undefined)
173 °C	COc1cc2c(c3c1c(=O)c1cc4ccccc4cc1n3C)[C@H](OC(=O)N(C)C)[C@H](OC(=O)N(C)C)C(C)(C)O2
179 to 181 °C	O=C(Nc1c(C(O)(C(F)(F)F)C(F)(F)F)ccc2ccccc12)c1cccc(Cl)c1
181 to 183 °C	COc1ccc(Cl)cc1C(=O)NC1COc2cc(OC)c(S(=O)(=O)NC(=O)NC(C)C)cc2C1 (centres undefined)
121 to 123 °C	CNc1nc(Cl)cc(NS(=O)(=O)c2ccc(F)cc2)n1
158 to 160 °C	O=C(O)COc1ccc(SCc2ccc(OCc3cc(Cl)ccc3Cl)cc2)c2c1CCC2
173 to 174 °C	CCOC(=O)c1cn(N)c2nc(C)ccc2c1=O
160 to 170 °C	Nc1cc(Cl)c(Oc2ccc(Cl)cc2)cc1C(=O)O
184 to 186 °C	Nc1coc2ccc(Cl)cc2c1=O
303 to 304 °C	N#Cc1ccc(-c2cccc(-c3nc4cc(C#N)ccc4[nH]3)c2)cc1
150 to 152 °C	CC(C)(C)c1ccc(OCC(O)CN2CCC3(CC2)CSC2=C(O3)c3ccccc3C(=O)C2=O)cc1 (centres undefined)
187 to 189 °C	COCCOc1cc2c(cc1C#Cc1ccccc1)NC(=O)CC(c1cccc(-n3ccnc3)c1)=N2
275 to 276 °C	N=S1C(n2c(S)nnc2-c2ccc(O)cc2)=CC=C1[N+](=O)[O-] (centres undefined)
89 to 91 °C	O=Cc1c(-c2ccccc2Br)ccc2c1OCO2
112 to 114 °C	Cc1cnc(CCC(C)C#N)c(N)c1 (centres undefined)
282 to 284 °C	COc1ccc2cc3c(c(-c4ccc(F)cc4)c2c1)CNC3=O
152 to 153 °C	COc1ccc2c(N(C)CCc3ccccn3)noc2c1
230 to 232 °C	O=C1CNc2cc(Br)c(Cl)cc2N1
